Earlier results as cited in patent EP4692316A1, “MICROCARRIER FOR CELL CULTURE, METHOD FOR PREPARING MICROCARRIER FOR CELL CULTURE, AND CELL CULTURE COMPOSITION USING SAME” (LG Chem, Ltd., priority 2024, dated 2025).

details: monomer or oil as supplied

Row | SMILES | density [g/mL]
1 | C=Cc1ccc(C)cc1C [2,4-Dimethylstyrene] | 0.906
2 | C=Cc1c(C)cc(C)cc1C [trimethylstyrene] | 0.906
3 | C=Cc1ccc(C(C)(C)C)cc1 [4-tert-butyl styrene] | 0.875
4 | C=Cc1ccc(C)cc1 [methylstyrene] | 0.89 to 0.92
